Reference: patent US6225100A, “Arylsulfotransferase” (DCV, Inc., priority 1999, dated 2001)
Structures can show the parent of a compound that is named as a salt. Where two headings read alike, the source gives them in different places. Peptide text beside a SMILES is read from it.

What was measured:
[1] = test system: AST from Clostridium innocuum strain 554WT; assay: AST assay, sulfate acceptors (phenolic compounds, tyrosylpeptides) with p-nitrophenylsulfate as sulfate donor; type: biochemical; settings: for Yield (%) of sulfated tyrosylpeptide: tyrosylpeptides as sulfate acceptors
[2] = test system: AST of Clostridium innocuum 554 ATCC 55803 (Strain 554WT); assay: AST assay, sulfate donor substrate specificity with tyramine as sulfate acceptor; type: biochemical; settings: for Activity (%) as sulfate donor: relative to p-nitrophenylsulfate designated as 100% activity, tyramine as sulfate acceptor; for specific activity as donor substrate: normalized to p-acetylphenylsulfate as donor baseline at 100% activity
Description: (§1) At each stage of purification, the AST activity was assayed by incubating the AST with 0.1 M Tris (pH 8.0), 5.0 mM p-nitrophenylsulfate (as aryl sulfate donor) and 2.5 mM tyramine (as sulfate acceptor). The reaction was incubated at 37° C. and terminated by addition of 1 N NaOH. The amount of p-nitrophenol formed during the reaction was determined by an absorbance reading at 405 nm. One unit of enzyme is equal to 1 mmol of p-nitrophenol formed per minute per milligram protein. Other aryl sulfate donors and phenolic acceptors were used at similar concentrations. Peptide acceptors were typically used in the 250-500 mM range. Formation of sulfated phenols and peptides was also quantitated via HPLC, using a 30% acetonitrile/70% water mobile phase. A UV detector was used to monitor peptides at 280 nm. Other wavelengths were used with various sulfated phenolic products and substrates as appropriate.
The AST assay was performed as described in Example 2 using each of the sulfate donors listed in Table 4, with tyramine as the sulfate acceptor in each case. […] Activity is shown as a percentage relative to the activity obtained with p-nitrophenylsulfate, which is designated as 100% activity.

[3] = test system: Eubacterium A-44 arylsulfotransferase; settings: p-acetylphenylsulfate as donor baseline at 100% activity; Kobashi et al., 1987; cited from earlier work
[4] = test system: Clostridium innocuum AST; assay: Effectors of arylsulfotransferase activity; type: biochemical; settings: no effect / inhibitory / stimulatory
Excerpt: The above-described physical and biochemical properties of a Clostridium innocuum AST of the present invention are summarized in Table 3.

[5] = test system: AST of Clostridium innocuum 554 ATCC 55803 (Strain 554WT); assay: Apparent Km from double reciprocal plots; type: biochemical
Description: as §1
In this AST assay, various concentrations of p-nitrophenylsulfate (as a sulfate donor) and of tyramine (as a sulfate acceptor) were plotted against the corresponding enzyme reaction rate in a double reciprocal plots (FIG. 4). AST activity was determined as described previously.

[6] = test system: Eubacterium nodatum arylsulfotransferase; assay: Sulfation of CCK-8 by Eubacterium nodatum enzyme; type: biochemical; settings: under conditions similar to the prior art
[7] = test system: bacterial arylsulfotransferase; settings: prior bacterial arylsulfotransferase; Kobashi et al., 1987; cited from earlier work
[8] = phenolic compounds, p-nitrophenylsulfate as sulfate donor, tyramine 100
[9] = p-nitrophenylsulfate as sulfate donor

Compound: COC(=O)[C@@H](N)Cc1ccc(O)cc1 [tyrosine methyl ester]
- Activity (%) as sulfate acceptor [1, 8]: 59%

Compound: Cc1cc(=O)oc2cc(OS(=O)(=O)O)ccc12 [4-methylumbelliferyl sulfate]
- Activity (%) as sulfate donor [2]: 46%

Compound: CSCC[C@H](NC(=O)[C@H](Cc1c[nH]c2ccccc12)NC(=O)CNC(=O)[C@@H](NC(=O)[C@H](Cc1ccc(O)cc1)NC(=O)[C@H](CC(=O)O)NC(=O)[C@H](CCC(N)=O)NC(=O)[C@@H]1CCC(=O)N1)[C@@H](C)O)C(=O)N[C@@H](CC(=O)O)C(=O)N[C@@H](Cc1ccccc1)C(N)=O (HELM PEPTIDE1{[Glp].Q.D.Y.T.G.W.M.D.F.[am]}$$$$V2.0)
- Yield (%) of sulfated tyrosylpeptide [1, 9]: 4.8%

Compound: C[C@@H](NC(=O)[C@@H](N)Cc1ccc(O)cc1)C(=O)N[C@@H](Cc1ccccc1)C(=O)NCC(=O)N[C@@H](Cc1ccc(O)cc1)C(=O)N1CCC[C@H]1C(=O)N[C@@H](CO)C(N)=O [dermorphin]
- Yield (%) of sulfated tyrosylpeptide [1, 9]: 67.0%

Compound: CSCC[C@H](NC(=O)[C@H](CC(C)C)NC(=O)CNC(=O)[C@H](Cc1ccc(O)cc1)NC(=O)[C@H](Cc1ccccc1)NC(=O)[C@H](CCCCN)NC(=O)[C@H](CC(N)=O)NC(=O)[C@@H]1CCCN1C(=O)[C@H](CC(=O)O)NC(=O)[C@H](C)NC(=O)[C@@H]1CCC(=O)N1)C(N)=O [physalaemin] (HELM PEPTIDE1{[Glp].A.D.P.N.K.F.Y.G.L.M.[am]}$$$$V2.0)
- Yield (%) of sulfated tyrosylpeptide [1, 9]: 10.5%

Compound: NC(=O)CC[C@@H]1NC(=O)[C@H](Cc2ccccc2)NC(=O)[C@H](Cc2ccc(O)cc2)NC(=O)[C@@H](N)CSSC[C@@H](C(=O)N2CCC[C@H]2C(=O)N[C@@H](CCCN=C(N)N)C(=O)NCC(N)=O)NC(=O)[C@H](CC(N)=O)NC1=O [arg8 vasopressin]
- Yield (%) of sulfated tyrosylpeptide [1, 9]: 35.8%

Compound: Oc1ccccc1O [catechol]
- Activity (%) as sulfate acceptor [1]: 208

Compound: Cc1cc(=O)oc2cc(O)ccc12 [4-methylumbelliferone]
- Activity (%) as sulfate acceptor [1, 8]: 86%

Compound: O=S(=O)(O)Oc1c[nH]c2ccccc12 [indoxyl sulfate]
- specific activity as donor substrate [2]: about 27%
- Activity (%) as sulfate donor [2]: 35%
- specific activity as donor substrate [3]: about 2.2%

Compound: phenolphthalein sulfate
- Activity (%) as sulfate donor [2]: 12%

Compound: hirudin (54-65) (GDFEEIPEEYLQ) [Gly-Asp-Phe-Glu-Glu-lle-Pro-Glu-Glu-Tyr-Leu-Gin]
- Yield (%) of sulfated tyrosylpeptide [1, 9]: 7.7%

Compound: C[C@]12CC[C@@H]3c4ccc(OS(=O)(=O)O)cc4CC[C@H]3[C@@H]1CCC2=O [estrone sulfate]
- specific activity as donor substrate [2]: about 17%
- Activity (%) as sulfate donor [2]: 22%
- specific activity as donor substrate [3]: about 3.4%

Compound: Nc1ncnc2c1ncn2[C@@H]1O[C@H](COP(=O)(O)OS(=O)(=O)O)[C@@H](OP(=O)(O)O)[C@H]1O [3'-phosphoadenosine-5'-phosphosulfate]
- utilization as a sulfate donor ([2]; in words): does not utilize
- Activity (%) as sulfate donor [2]: 0%

Compound: CC[C@H](C)[C@H](NC(=O)[C@H](Cc1ccc(O)cc1)NC(=O)[C@@H](NC(=O)[C@H](CCCNC(=N)N)NC(=O)[C@@H](N)CC(=O)O)C(C)C)C(=O)N[C@@H](Cc1cnc[nH]1)C(=O)N1CCC[C@H]1C(=O)N[C@@H](Cc1ccccc1)C(=O)N[C@@H](Cc1cnc[nH]1)C(=O)N[C@@H](CC(C)C)C(=O)O [angiotensin I] (H-DRVYIHPFHL-OH)
- Yield (%) of sulfated tyrosylpeptide [1, 9]: 8.8%

Compound: N=C(N)NCCC[C@H](NC(=O)[C@@H](N)Cc1ccc(O)cc1)C(=O)O [kyotorphin]
- Yield (%) of sulfated tyrosylpeptide [1, 9]: 16.8%

Compound: O=C(O)CN(CCN(CC(=O)O)CC(=O)O)CC(=O)O [EDTA]
- Effectors: effect on enzyme activity [4]: no effect

Compound: CC(C)C[C@H](NC(=O)[C@H](Cc1ccc(O)cc1)NC(=O)[C@@H](N)CCCNC(=N)N)C(=O)N1CCC[C@H]1C(=O)N[C@H](C(=O)O)[C@@H](C)O [proctolin] (H-RYLPT-OH)
- Yield (%) of sulfated tyrosylpeptide [1, 9]: 19.8%

Compound: N[C@@H](Cc1ccc(O)cc1)C(=O)O [tyrosine]
- Activity (%) as sulfate acceptor [1]: 13

Compound: CC(C)C[C@H](NC(=O)[C@H](Cc1ccccc1)NC(=O)CNC(=O)CNC(=O)[C@@H](N)Cc1ccc(O)cc1)C(=O)O [leu enkephalin]
- Yield (%) of sulfated tyrosylpeptide [1, 9]: 92.5%

Compound: Oc1ccccc1 [phenol]
- Activity (%) as sulfate acceptor [1]: 194

Compound: Oc1cc(O)c2c(c1)OC(c1ccc(O)c(O)c1)C(O)C2 (stereo not shown) [catechin]
- Activity (%) as sulfate acceptor [1]: 150

Compound: NCCc1ccc(O)cc1 [tyramine, 4-hydroxyphenethylamine]
- Activity (%) as sulfate acceptor [1, 8]: 100%
- Km [5]: 1630 µM

Compound: COC(=O)c1ccc(O)cc1 [methyl p-hydroxybenzoate]
- Activity (%) as sulfate acceptor [1]: 65

Compound: CSCC[C@H](NC(=O)[C@H](Cc1ccc(O)cc1)NC(=O)[C@@H](N)CC(=O)O)C(=O)NCC(=O)N[C@@H](Cc1c[nH]c2ccccc12)C(=O)N[C@@H](CCSC)C(=O)N[C@@H](CC(=O)O)C(=O)N[C@@H](Cc1ccccc1)C(N)=O [cholecystokinin8, cholecystokinin-8]
- yield of sulfation of CCK-8 ([1]; Clostridium arylsulfotransferase, under conditions similar to the prior art): ≥ 60%
- Yield (%) of sulfated tyrosylpeptide [1, 9]: 35.4%
- yield of sulfation of CCK-8 [6]: ≥ 45%
- highest reported yield of sulfated CCK-8 [7]: ~31.3%

Compound: O=[N+]([O-])c1ccc(O)c(OS(=O)(=O)O)c1 [p-nitrocatechol sulfate]
- Activity (%) as sulfate donor [2]: 196%
